Tests used:
Format in all cases: functional
[1] = Antiplatelet activity in Sprague-Dawley rat platelet-rich plasma assessed as minimum drug level causing inhibition of ADP-induced platelet aggregation administered 2 mins before ADP challenge by modified smear method
[2] = Antiplatelet activity in Sprague-Dawley rat platelet-rich plasma assessed as minimum drug level causing inhibition of collagen-induced platelet aggregation administered 2 mins before collagen challenge by modified smear method
[3] = Antiplatelet activity in Sprague-Dawley rat platelet-rich plasma assessed as minimum drug level causing inhibition of arachidonic acid-induced platelet aggregation administered 2 mins before arachidonic acid challenge by modified smear method

Row | SMILES | Activity [1] [µg/mL] | Activity [2] [µg/mL] | Activity [3] [µg/mL]
1 | CC(=O)Oc1ccccc1C(=O)O [ASPIRIN] | 1000 | 250 | 50
2 | COc1ccc(Cc2nccc3cc(OC)c(OC)cc23)cc1OC [PAPAVERINE] | 100 | 25 | 10

Reference: ChEMBL document CHEMBL1151649, “Modified smear method for screening potential inhibitors of platelet aggregation from plant sources” (1985)
